Test results published in the METLIN SMRT retention time set (Domingo-Almenara et al. 2019).

Experiment: gradient 5% acetonitrile 3 min, to 50% in 2 min, to 85% in 15 min, held 3 min, 100 µL/min
Conditions: column: Zorbax Extend-C18 2.1 x 50 mm; eluents: water / acetonitrile, 0.1% formic acid
Procedure, shortened: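 Retention times of pure standards were taken from adduct peaks that were selected by computer and manually inspected. Over 3 months, mixtures of ~100 molecules were run by HPLC–quadrupole time-of-flight mass spectrometry in positive and negative ionization mode. The Zorbax Extend-C18 column (2.1 × 50 mm, 1.8 μm) ran at 100 μL/min in water and acetonitrile, each containing 0.1% formic acid, with 40 μL dead volume and 900 μL dwell volume.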

RP-LC retention time | Compound
1220 s | CC(C)Cn1cc(S(=O)(=O)N2CCN(c3ccccc3Cl)CC2)c2cccnc21
624 s | Cc1cc2nc(C)c(=O)n(CC(=O)NCCCN(C)C3CCCCC3)c2cc1C
1060 s | Cc1cccc(-c2nc(Cn3nnc(-c4nc(-c5cccnc5)no4)c3C)c(C)o2)c1
795 s | COc1cc(-c2nc3nc4ccccc4nc3n2CC2CCCO2)cc(OC)c1OC (stereo unspecified)
699 s | Cc1nc2cc(N3CC(C(=O)NCc4ccccc4F)CC3=O)ccc2o1 (stereo unspecified)
682 s | COc1cc(NC(=O)NCCc2nc3cccnc3n2-c2ccccc2)cc(OC)c1OC
1000 s | CCC(=O)Nc1nc(-c2ccc(C(C)C)cc2)cs1
552 s | Cc1[nH]c(=O)[nH]c(=O)c1CC(=O)NCCn1nc(-c2ccco2)ccc1=O
564 s | CCCn1c(C)cnc1C1CCN(S(=O)(=O)c2ccc3c(c2)CCC3)C1 (stereo unspecified)
680 s | Cc1ccc2nc(-c3ccc(C)c(NC(=O)C(C)(C)C)c3)[nH]c2c1
778 s | Cc1[nH]c(C(=O)N2CCC(CC(=O)NC3CCCC3)CC2)c(C)c1C(=O)OC(C)C
582 s | CN(C)C(=O)c1ccc2oc(CN3CCN(C(=O)NCc4ccco4)CC3)nc2c1
727 s | CCOc1ccccc1CN1C[C@@H]2C(=O)N(Cc3ccc4c(c3)OCO4)C(=O)[C@@H]2C1
923 s | CCN1C(=O)COc2ccc(-c3noc(Cc4ccc(OC)c(OC)c4)n3)cc21
644 s | CC(=O)N1CCc2nn(CC(=O)Nc3ccc(F)c(F)c3)c(=O)cc2C1
728 s | Cc1nc(C)c(C(=O)N2CCCCCCN(C)C(=O)[C@@H]3CCC[C@@H]32)s1
987 s | OCCNCc1ccc(-c2cccc(Cl)c2)o1
782 s | O=C(Nc1ccc2nc3n(c(=O)c2c1)CCCC3)Nc1ccc(Br)cc1F

RP-LC retention time | Compound
1020 s | COc1ccc(Cn2cccc2-c2nc(C)no2)cc1
682 s | Cc1ccc(NC(=O)N2CCCC(Cn3cnc4cccnc43)C2)c(Cl)c1 (stereo unspecified)
966 s | CCOc1ccc(-c2nc(Cc3noc(-c4ccccn4)n3)c(C)o2)cc1
711 s | O=C(CN1c2ccc(F)cc2-c2ccccc2S1(=O)=O)N1CCN(Cc2ccccc2)CC1
779 s | Cn1nccc1C(=O)N1CCC(c2nc(-c3ccccc3)no2)C1 (stereo unspecified)
570 s | Cc1ccccc1CN1CCC2(CC1)CC(O)(c1ccccn1)CCO2 (stereo unspecified)
956 s | CCS(=O)(=O)N1CC(=O)N(c2cccc(F)c2)C(C)(C(=O)NC2CCCCCCC2)C1 (stereo unspecified)
553 s | CN(C)C[C@@H]1CN(Cc2ccccn2)C[C@H]1NS(=O)(=O)c1cccc(F)c1
1060 s | O=c1c2cc(-c3ccc(F)cc3)nn2ccn1Cc1nc(-c2cccc(F)c2)no1
761 s | COC1CN(c2cccc(F)c2)C12CCN(Cc1cccc(F)c1)CC2 (stereo unspecified)
655 s | O=C1NC2CCCCC2C2=NC(CN3CCN(c4ccccc4)CC3)CN12 (stereo unspecified)
1110 s | Cc1ccc(N2C(=O)C3N=NN(Cc4nc(-c5ccc(C)c(C)c5)no4)C3C2=O)cc1 (stereo unspecified)
562 s | COc1cccc(CN2CCC3(CC2)CN(c2ncccn2)CC3CO)n1 (stereo unspecified)
853 s | Cc1cccc(NC(=O)N2CCC(N3CCN(Cc4ccccc4)C3=O)CC2)c1
743 s | NC(=O)C(=O)c1cn(CC(=O)NC2CCCCC2)c2ccccc12
874 s | COc1ccc(NC(=O)c2ccc3c(c2)OCCO3)c([N+](=O)[O-])c1
1070 s | CCOC(=O)Nc1ccc2c(c1)N(CCC(C)C)C(=O)C(C)(C)CO2
914 s | CCn1c(=O)oc2cc(-c3noc(-c4n[nH]c5c4CCCC5)n3)ccc21
